In the supplement of paper PMC10307832:

Key:
Assay in all cases: relative viability (nuclei count vs DMSO), 5 days (fraction); higher = more cells survive
PAC-1 + Navitoclax = compound: C=CCc1cccc(/C=N/NC(=O)CN2CCN(Cc3ccccc3)CC2)c1O [PAC-1] + CC1(C)CCC(c2ccc(Cl)cc2)=C(CN2CCN(c3ccc(C(=O)NS(=O)(=O)c4ccc(N[C@H](CCN5CCOCC5)CSc5ccccc5)c(S(=O)(=O)C(F)(F)F)c4)cc3)CC2)C1 [Navitoclax] (partner 0.5 µM)
Summary of the method: (§1)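 Relative viability equals treated-well nuclei counts divided by vehicle-well nuclei counts. Counts came from 4× images of lung cancer cell lines grown in 1536-well plates for 5 days after pin-tool dosing on the day after seeding. Dosing used one drug alone or a fixed anchor-drug dose plus five library-drug doses (not always all listed) in √10 steps, and values are medians of duplicate plates.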

BMX-IN-1 + Foretinib = compound: C=CC(=O)Nc1cc(-n2c(=O)ccc3cnc4ccc(-c5ccc(NS(C)(=O)=O)cc5)cc4c32)ccc1C [BMX-IN-1] + COc1cc2c(Oc3ccc(NC(=O)C4(C(=O)Nc5ccc(F)cc5)CC4)cc3F)ccnc2cc1OCCCN1CCOCC1 [Foretinib] (partner 0.25 µM)
Summary of the method: as §1

Ibrutinib + Pemetrexed = compound: C=CC(=O)N1CCC[C@@H](n2nc(-c3ccc(Oc4ccccc4)cc3)c3c(N)ncnc32)C1 [Ibrutinib] + Nc1nc2[nH]cc(CCc3ccc(C(=O)N[C@@H](CCC(=O)O)C(=O)O)cc3)c2c(=O)[nH]1 [Pemetrexed] (partner 0.2 µM)
Summary of the method: as §1

PAC-1 + Alpelisib = compound: C=CCc1cccc(/C=N/NC(=O)CN2CCN(Cc3ccccc3)CC2)c1O [PAC-1] + Cc1nc(NC(=O)N2CCC[C@H]2C(N)=O)sc1-c1ccnc(C(C)(C)C(F)(F)F)c1 [Alpelisib] (partner 2 µM)
Summary of the method: as §1

Row | Cell Line | relative viability (PAC-1 + Navitoclax; first compound 0.02 µM) | relative viability (PAC-1 + Navitoclax; first compound 0.06325 µM) | relative viability (PAC-1 + Navitoclax; first compound 0.2 µM) | relative viability (PAC-1 + Navitoclax; first compound 2 µM) | relative viability (BMX-IN-1 + Foretinib; first compound 0.02 µM) | relative viability (BMX-IN-1 + Foretinib; first compound 0.2 µM) | relative viability (BMX-IN-1 + Foretinib; first compound 0.6325 µM) | relative viability (BMX-IN-1 + Foretinib; first compound 2 µM) | relative viability (Ibrutinib + Pemetrexed; first compound 0.005 µM) | relative viability (Ibrutinib + Pemetrexed; first compound 0.01581 µM) | relative viability (Ibrutinib + Pemetrexed; first compound 0.05 µM) | relative viability (Ibrutinib + Pemetrexed; first compound 0.1581 µM) | relative viability (Ibrutinib + Pemetrexed; first compound 0.5 µM) | relative viability (PAC-1 + Alpelisib; first compound 0.02 µM) | relative viability (PAC-1 + Alpelisib; first compound 0.06325 µM) | relative viability (PAC-1 + Alpelisib; first compound 0.2 µM) | relative viability (PAC-1 + Alpelisib; first compound 2 µM)
1 | NCI-H2228 | 0.98 | 1.12 | 0.893 | 0.785 | 1.19 | 1.08 | 1.03 | 0.916 | 0.33 | 0.345 | 0.328 | 0.397 | 0.445 | 0.611 | 0.672 | 0.593 | 0.753
2 | LU99A | 0.939 | 0.836 | 0.717 | 0.801 | 0.828 | 0.776 | 0.842 | 0.817 | 0.217 | 0.211 | 0.205 | 0.206 | 0.412 | 0.528 | 0.508 | 0.495 | 0.472
3 | NCI-H522 | – | – | – | – | – | – | – | – | 1.12 | 0.789 | 0.795 | 0.925 | 0.956 | – | – | – | –
4 | LCLC-97TM1 | – | 0.395 | 0.307 | 0.62 | 1.01 | 0.917 | 1.03 | 1.1 | 0.234 | 0.208 | 0.22 | 0.232 | 0.249 | – | 0.215 | 0.281 | 0.192
5 | NCI-H2023 | 0.981 | 0.963 | 0.953 | 1.02 | 0.928 | 1.12 | 1.06 | 0.926 | 0.208 | 0.219 | 0.293 | 0.248 | 0.396 | 0.576 | 0.592 | 0.654 | 0.673
6 | Calu-6 | 0.817 | 0.861 | 0.878 | 0.855 | 0.918 | 1.07 | 0.908 | 0.776 | – | – | – | – | – | 0.929 | 1.03 | 0.931 | 1.13
7 | HCC-44 | 1.01 | 0.977 | 0.978 | 1.01 | – | – | – | – | 0.711 | 0.669 | 0.624 | 0.64 | 0.987 | 0.782 | 0.875 | 0.774 | 0.855
8 | NCI-H1563 | – | – | – | – | 0.922 | 0.956 | 0.914 | 0.906 | 0.623 | 0.812 | 0.741 | 0.706 | 0.657 | 0.98 | 0.935 | 0.922 | 1.02
9 | NCI-H650 | – | – | – | – | 1.06 | 1.01 | 1.12 | 1.1 | 1.03 | 0.881 | 0.885 | 1.15 | 1.1 | 1.09 | 1.23 | 1.23 | 1.17
10 | LCLC-103H | – | – | – | – | 0.879 | 0.78 | 0.882 | 0.735 | 0.43 | 0.467 | 0.467 | 0.464 | 0.544 | 0.861 | 0.864 | 1.05 | 0.928
11 | NCI-H358 | – | – | – | – | 0.855 | 0.777 | 0.887 | 0.701 | 0.165 | 0.18 | – | 0.171 | 0.16 | 0.811 | 0.836 | 0.924 | 0.572
12 | IA-LM | 0.78 | 0.92 | 0.632 | 0.657 | 1.53 | 1.31 | 1.15 | 1.21 | – | – | – | – | – | 0.955 | 0.613 | 0.619 | 0.832
13 | NCI-H1299 | 1.04 | 1.03 | 1.06 | 1.04 | 1.12 | 1.06 | 1.16 | 1.06 | – | – | – | – | – | 1.06 | 1 | 1.02 | 1.01
14 | NCI-H727 | 0.425 | 0.452 | 0.352 | 0.42 | 1.37 | 0.933 | 0.893 | 1.01 | – | – | – | – | – | 0.646 | 0.648 | 0.527 | 0.561
15 | NCI-H1648 | – | – | – | – | – | – | – | – | 0.796 | 0.655 | 0.569 | 0.961 | 0.751 | – | – | – | –
16 | NCI-H1703 | 1.4 | 0.998 | 0.958 | 0.959 | 0.358 | 0.351 | 0.298 | 0.322 | – | – | – | – | – | 0.364 | 0.414 | 0.356 | 0.344
17 | NCI-H2342 | – | – | – | – | 1.06 | 1.04 | 1.04 | 1.24 | 0.455 | 0.806 | 0.618 | 0.723 | 0.715 | – | – | – | –
18 | NCI-H1623 | – | – | – | – | 0.853 | 1.02 | 0.798 | 0.788 | – | – | – | – | – | – | – | – | –
19 | SW 900 | – | – | – | – | 0.815 | 0.944 | 0.757 | 0.802 | 0.456 | 0.48 | 0.478 | 0.482 | 0.49 | – | – | – | –
20 | ABC-1 | – | – | – | – | 1.21 | 0.999 | 1.19 | 0.955 | – | – | – | – | – | 1.11 | 1.06 | 1.1 | 1.28
21 | ChaGo-K-1 | 1.2 | 1.08 | 1.21 | 1.08 | 1.09 | 0.938 | 0.821 | 0.915 | 0.254 | 0.263 | 0.264 | 0.261 | 0.271 | – | – | – | –
22 | NCI-H1792 | 0.613 | 0.563 | 0.621 | 0.681 | – | – | – | – | – | 0.67 | 0.96 | 0.818 | 0.596 | 0.717 | 0.77 | 0.722 | 0.677
